Data on 13 compounds can be found in PubChem BioAssay (NCI).

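Grown in 96-well plates, cells were treated for 48 hours with each compound at five concentrations. Insufficient inhibition: endpoint recorded as highest concentration tested. At the GI50, growth is halved. At the TGI there is no net growth.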

Test systems include OVCAR-4 ovarian; OVCAR-8 ovarian; OVCAR-5 ovarian; K-562 leukemia; UO-31 renal; SK-OV-3 ovarian; CAKI-1 renal; ACHN renal; SN12C renal; SNB-19 CNS.
What all share (test): inhibition of tumour cell growth, NCI panel, 48 h

For the compound `O=C(Nc1ccc(Cl)cc1)c1cc2ccccc2cc1OP(=O)(O)O`, the GI50 in the experiment on OVCAR-4 ovarian was 4.88 µM; in the experiment on OVCAR-8 ovarian, 4.73 µM; in the experiment on OVCAR-5 ovarian it was 6.51 µM; in the experiment on K-562 leukemia, 53.8 µM; in the experiment on UO-31 renal, 3.75 µM; in the experiment on SK-OV-3 ovarian it was 2.51 µM. Moreover, the GI50 is 1.77 µM in the experiment on CAKI-1 renal, 3.04 µM with ACHN renal and 3.4 µM in the experiment with SN12C renal. Besides, the TGI with OVCAR-4 ovarian was over 100 µM; in the experiment with OVCAR-8 ovarian it was over 100 µM; in the experiment with OVCAR-5 ovarian it was 42.3 µM; with K-562 leukemia, over 100 µM; in the experiment with UO-31 renal, over 100 µM; in the experiment with SK-OV-3 ovarian, 16.9 µM. Also, the TGI with CAKI-1 renal is 11.1 µM; in the experiment on ACHN renal it was 49.3 µM; in the experiment on SN12C renal, over 100 µM.
Turning to `Cc1cc(C)c(C(=O)/C(=C/c2ccccc2)c2ccccc2)c(C)c1`, the TGI with OVCAR-4 ovarian, with OVCAR-8 ovarian, in the experiment on SNB-19 CNS, with K-562 leukemia, in the experiment on UO-31 renal and in the experiment on SK-OV-3 ovarian was over 100 µM throughout. In addition, the TGI with CAKI-1 renal, in the experiment on ACHN renal and in the experiment with SN12C renal was over 100 µM each time.
Regarding `Cc1cc2c(C)nn(Cc3ccccc3Cl)c2c(C#N)c1C`, the TGI in the experiment on OVCAR-8 ovarian, in the experiment with SNB-19 CNS, in the experiment with OVCAR-5 ovarian, in the experiment on UO-31 renal, in the experiment with SK-OV-3 ovarian and with ACHN renal was over 100 µM in each case. Moreover, the TGI in the experiment with SN12C renal was over 100 µM.
Consider `O=C1c2ccccc2-c2ccccc2C1(Cl)Cl`, for which the GI50 is 0.19 µM in the experiment on OVCAR-4 ovarian; 0.334 µM with OVCAR-8 ovarian; 1.84 µM in the experiment on SNB-19 CNS; 0.43 µM in the experiment with K-562 leukemia; 1.12 µM in the experiment on UO-31 renal; 1.7 µM with SK-OV-3 ovarian. Moreover, the GI50 with CAKI-1 renal was 1.17 µM; in the experiment on ACHN renal it was 1.72 µM; in the experiment with SN12C renal, 1.45 µM. Further, the TGI in the experiment on OVCAR-4 ovarian is 0.337 µM; with OVCAR-8 ovarian it was 1.26 µM; with SNB-19 CNS it was 4.66 µM; in the experiment on K-562 leukemia it was 5.46 µM; in the experiment on UO-31 renal, 2.41 µM; with SK-OV-3 ovarian, 3.08 µM. In addition, the TGI in the experiment on CAKI-1 renal came to 2.63 µM; in the experiment on ACHN renal, 3.53 µM; with SN12C renal, 2.98 µM.
For the compound `CSc1nc(SC)c2c(C)cn(C3OC(C)C(O)C(O)C3O)c2n1` (stereo not drawn), the TGI with OVCAR-4 ovarian, in the experiment on OVCAR-8 ovarian, in the experiment with SNB-19 CNS, with OVCAR-5 ovarian, in the experiment with UO-31 renal and with SK-OV-3 ovarian was over 100 µM in each case. In addition, the TGI with ACHN renal and in the experiment with SN12C renal was over 100 µM throughout.
Take `CCOC(=O)Cn1c(=O)[nH]c(=O)c2[nH]cnc21`: the TGI in the experiment with OVCAR-4 ovarian, in the experiment with OVCAR-8 ovarian, with SNB-19 CNS, in the experiment on OVCAR-5 ovarian, with K-562 leukemia and in the experiment on UO-31 renal was over 100 µM in each case. The TGI with SK-OV-3 ovarian, with ACHN renal and in the experiment on SN12C renal was over 100 µM in each case.
For the compound `O=C(CC1(O)C(=O)Nc2ccc([N+](=O)[O-])cc21)c1ccc(Br)cc1` (stereo not drawn), the TGI in the experiment with OVCAR-4 ovarian, in the experiment with OVCAR-8 ovarian, with SNB-19 CNS, with OVCAR-5 ovarian, with K-562 leukemia and in the experiment on UO-31 renal was over 100 µM throughout. The TGI in the experiment with SK-OV-3 ovarian, in the experiment on ACHN renal and in the experiment with SN12C renal was over 100 µM throughout.
For the compound `O=C(O)C1C2CCC(O2)C1C(=O)NCc1cccnc1` (stereo not drawn), the TGI in the experiment on OVCAR-4 ovarian, in the experiment on SNB-19 CNS, with OVCAR-5 ovarian, with UO-31 renal, with SK-OV-3 ovarian and in the experiment with CAKI-1 renal was over 100 µM in each case. For the same compound, the TGI in the experiment on ACHN renal and in the experiment on SN12C renal was over 100 µM throughout.
As for `COc1ccc(NC(=O)C2=CC(=O)c3ccc(O)cc3C2=O)c(OC)c1`, the TGI with OVCAR-4 ovarian, in the experiment with OVCAR-8 ovarian, with SNB-19 CNS, in the experiment on OVCAR-5 ovarian, in the experiment with K-562 leukemia and in the experiment on CAKI-1 renal was over 100 µM in each case. For the same compound, the TGI with ACHN renal and in the experiment on SN12C renal was over 100 µM in each case.
As for `C/C(CC(=O)Nc1ccc([N+](=O)[O-])cc1)=N\Nc1ccc([N+](=O)[O-])cc1[N+](=O)[O-]`, the TGI in the experiment on OVCAR-8 ovarian, in the experiment with OVCAR-5 ovarian, with K-562 leukemia, with UO-31 renal, with SK-OV-3 ovarian and in the experiment on ACHN renal was over 100 µM in each case.
Regarding `CN(CCCCN)c1ccc2c(=O)[nH][nH]c(=O)c2c1`, the TGI in the experiment with OVCAR-4 ovarian, in the experiment on OVCAR-5 ovarian, in the experiment with K-562 leukemia, with UO-31 renal, in the experiment on SK-OV-3 ovarian and in the experiment with CAKI-1 renal was over 100 µM each time. Also, the TGI with ACHN renal and in the experiment with SN12C renal was over 100 µM each time.
Regarding `Cc1nc2cc(Nc3nc(Nc4ccc(F)cc4)nc(N4CCCC4)n3)ccc2n1Cc1ccccc1`, the GI50 is 1.62 µM in the experiment on OVCAR-4 ovarian; 2.15 µM in the experiment with OVCAR-8 ovarian; 3.4 µM in the experiment with SNB-19 CNS; 1.72 µM in the experiment with OVCAR-5 ovarian; 1.51 µM in the experiment on UO-31 renal; 2.18 µM in the experiment with SK-OV-3 ovarian. Besides, the GI50 with ACHN renal is 2.19 µM; in the experiment with SN12C renal, 1.84 µM. Besides, the TGI worked out at 4 µM in the experiment on OVCAR-4 ovarian; 4.79 µM in the experiment on OVCAR-8 ovarian; 87.3 µM with SNB-19 CNS; 3.42 µM with OVCAR-5 ovarian; 2.92 µM in the experiment on UO-31 renal; 5.2 µM in the experiment on SK-OV-3 ovarian. In addition, the TGI in the experiment on ACHN renal worked out at 5.41 µM; with SN12C renal, 3.45 µM.
On to `C1C[S][Ge]2([S]CCS1)[S]CCSCC[S]2`, for which the GI50 in the experiment with OVCAR-4 ovarian, with K-562 leukemia, with UO-31 renal, in the experiment on SK-OV-3 ovarian, in the experiment on CAKI-1 renal and in the experiment with ACHN renal was over 100 µM throughout. In addition, the GI50 in the experiment on SN12C renal was over 100 µM. Further, the TGI in the experiment with OVCAR-4 ovarian, in the experiment with K-562 leukemia, with UO-31 renal, in the experiment on SK-OV-3 ovarian, with CAKI-1 renal and in the experiment on ACHN renal was over 100 µM in each case. This compound showed a TGI in the experiment on SN12C renal of over 100 µM.
